Data set [1] deals with T1, CHC^ankle (clathrin heavy chain aa 358–574) (Homo sapiens, UniProt Q00610).
T1 construct: we used the minimal ankle region of CHC (CHC^ankle, aa 358–574); GST (TEV-cleavable); made in house
T1 sequence (Q00610 358-574): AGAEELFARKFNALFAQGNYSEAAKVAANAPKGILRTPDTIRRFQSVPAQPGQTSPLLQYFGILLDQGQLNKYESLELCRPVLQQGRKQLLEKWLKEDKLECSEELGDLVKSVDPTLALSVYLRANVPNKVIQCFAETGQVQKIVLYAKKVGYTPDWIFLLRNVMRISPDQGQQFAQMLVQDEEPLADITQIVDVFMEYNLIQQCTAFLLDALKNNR
The data set can be described thus: Fluorescence polarisation direct binding assay, CHC ankle WT. The following applies: direct binding FP, FAM labelled peptides; CHC WT (385–574); mean of three experiments ± SD; read-out: KD, stapled and control peptides, CHC WT. The method, then:
(§1) Binding affinity of CHC and TACC3 peptides was calculated based on fluorescence polarization assays performed as reported previously, using linear and stapled FAM-TACC3 peptides corresponding to aa 549–570 of human TACC3 protein. Linear peptides were purchased from PPR (Fareham, UK); Alta Bioscience (Redditch, UK); Biomatik Corporation (Ontario, Canada). Stock solutions of peptides were 10 mM in DMSO. Binding assays were performed in triplicate in the binding buffer 20 mM HEPES pH 7.5, 150 mM NaCl, 5 mM DTT, 0.05% Tween-20. Data analysis was performed using a one-site specific binding model in Prism (GraphPad software, v10.1.0).

The target of the next data set is T2, K507A-CHC^ankle (Homo sapiens, UniProt Q00610, K507A).
T2 construct: we used the minimal ankle region of CHC (CHC^ankle, aa 358–574); GST (TEV-cleavable); made in house
T2 sequence (Q00610 358-574 K507A): T1 sequence (Q00610 358-574) with K150A
The data set is described as follows: Fluorescence polarisation direct binding assay, K507A-CHC ankle. The following applies: direct binding FP, FAM labelled peptides; CHC with K507A substitution; mean of three experiments ± SD; read-out: KD, stapled and control peptides, CHC K507A.
Source text: CHC constructs for binding studies were produced during previous work by cloning the respective CHC coding sequence of Q00610 (CLH1_HUMAN) aa 1–574 and 358–574, respectively) into a modified pGEX vector containing a TEV-cleavable GST tag[26]. Point mutations K506A and K507A were introduced by site-directed mutagenesis. GB1-TACC3 is the small protein GB1[47] fused to a short, disordered peptide sequence from human TACC3 (Q9Y6A5, aa 545–573). This hybrid sequence was cloned into a pETM6T1 vector which contains a TEV protease-cleavable N-terminal His-NusA tag.
as §1

The next data set has as its system HeLa cells. The data set is described as follows: Confocal microscopy of fixed HeLa cells (peptide localisation, endogenous TACC3 and CHC on mitotic spindle). The data set is classed as cell-based. The protocol: HeLa cells grown on glass coverslips in complete growth medium and treated with 2.5, 5 and 10 μM FAM-peptides for 5 h. Cells were washed with PBS and fixed with PTEMF (20 mM PIPES, pH 6.8, 10 mM EGTA, 1 mM MgCl2, 0.2% Triton X-100 and 4% paraformaldehyde) for 10 min and permeabilized at room temperature in 0.5% Triton-X100 in PBS for 10 min. Cells were blocked in 3% BSA in PBS for 1 h and incubated overnight with primary antibodies diluted in 3% BSA/PBS buffer followed by 1 h incubation with secondary antibodies. Primary antibodies were as follows: mouse anti-CHC (X22; GTX22731; 1:250), rabbit anti-TACC3 (ab134154, Abcam; 1:500). Secondary antibodies were anti-mouse IgG Atto 594 (1:250, 76085, Merck) and anti-rabbit IgG Atto 647N antibody (1:250, 40839, Merck). Coverslips were mounted with ProLong Gold antifade reagent with DAPI (Invitrogen). Peptides were imaged using their 6-FAM fluorescent tag with a 488 nm argon laser. Imaging was performed on a Zeiss LSM880 upright confocal microscope using a 40x/1.4 NA oil objective. Z-stacks comprising of 9–13 × 1 μm sections were acquired. Images were captured using identical settings. The region of interest (~0.6 μm^2) was quantified in three different locations over the spindle, cytoplasm and in the non-cell region of background. Images were analysed using Fiji (v.2.9.0).

Molecules are shown by their SMILES. Changes are numbered by the printed parent chain. Positions of bridges follow the written chain, without caps; N, C: chain ends. Non-standard residues stand in square brackets, D forms with d. Residues, ends and D or L forms follow the SMILES beside them. *: point of attachment. 5FAM = O=C1OC2(c3ccc(O)cc3Oc3cc(O)ccc32)c2ccc(C(=O)*)cc21; 6FAM = O=C1OC2(c3ccc(O)cc3Oc3cc(O)ccc32)c2cc(C(=O)*)ccc21; S5 = C=CCCC[C@](C)(N)C(=O)O; AEEEA = NCCOCCOCCOCC(=O)O

Broadly, the Kd is the constant that tells how readily two partners part at equilibrium.

As for `CC(C)C[C@@H]1NC(=O)[C@H](C)NC(=O)[C@H](CO)NC(=O)[C@@](C)(NC(=O)[C@H](CCCCN)NC(=O)[C@H](Cc2ccccc2)NC(=O)c2ccc3c(c2)C(=O)OC32c3ccc(O)cc3Oc3cc(O)ccc32)CCCC=CCCC[C@@](C)(C(=O)N[C@@H](CCCCN)C(=O)N[C@@H](CCC(N)=O)C(=O)N[C@@H](CCC(=O)O)C(=O)N[C@@H](CC(C)C)C(=O)N[C@@H](Cc2ccc(O)cc2)C(=O)N[C@@H](CC(C)C)C(=O)N[C@@H](CCCCN)C(=O)N[C@@H](Cc2ccccc2)C(=O)N[C@@H](CC(=O)O)C(=O)N2CCC[C@H]2C(=O)N[C@@H](CC(C)C)C(=O)N[C@@H](CC(C)C)C(=O)N[C@@H](CCCNC(=N)N)C(=O)N[C@@H](CC(=O)O)C(=O)N[C@@H](CO)C(N)=O)NC1=O` [SP3E] (5FAM-FK[S5]SAL[S5]KQELYLKFDPLLRDS-NH2; staple 3-7), the results for the dissociation constant Kd (in data set [1]; at K507A-CHC^ankle) were 78 ± 3 µM and 22 ± 6 µM, respectively. For `CC(C)C[C@H](NC(=O)[C@H](C)NC(=O)[C@H](CO)NC(=O)[C@H](CCC(=O)O)NC(=O)[C@H](CCCCN)NC(=O)[C@H](Cc1ccccc1)NC(=O)c1ccc2c(c1)C(=O)OC21c2ccc(O)cc2Oc2cc(O)ccc21)C(=O)N[C@@H](CCCNC(=N)N)C(=O)N[C@@H](CCCCN)C(=O)N[C@@H](CCC(N)=O)C(=O)N[C@@H](CCC(=O)O)C(=O)N[C@@H](CC(C)C)C(=O)N[C@@H](Cc1ccc(O)cc1)C(=O)N[C@@]1(C)CCCC=CCCC[C@@](C)(C(=O)N[C@@H](CC(C)C)C(=O)N[C@@H](CC(C)C)C(=O)N[C@@H](CCCNC(=N)N)C(=O)N[C@@H](CC(=O)O)C(=O)N[C@@H](CO)C(N)=O)NC(=O)[C@H](CC(=O)O)NC(=O)[C@H](Cc2ccccc2)NC(=O)[C@H](CCCCN)NC1=O` [SP5E] (5FAM-FKESALRKQELY[S5]KFD[S5]LLRDS-NH2; staple 13-17), the Kd on K507A-CHC^ankle worked out at 146 ± 3 µM. For the molecule `CC(C)C[C@H](NC(=O)[C@H](Cc1ccc(O)cc1)NC(=O)[C@H](CC(C)C)NC(=O)[C@]1(C)CCCC=CCCC[C@](C)(NC(=O)[C@H](C)NC(=O)[C@H](CO)NC(=O)[C@H](CCC(=O)O)NC(=O)[C@H](CCCCN)NC(=O)[C@H](Cc2ccccc2)NC(=O)c2ccc3c(c2)C2(OC3=O)c3ccc(O)cc3Oc3cc(O)ccc32)C(=O)N[C@@H](CCCNC(=N)N)C(=O)N[C@@H](CCCCN)C(=O)N[C@@H](CCC(N)=O)C(=O)N1)C(=O)N[C@@H](CCCCN)C(=O)N[C@@H](Cc1ccccc1)C(=O)N[C@@H](CC(=O)O)C(=O)N1CCC[C@H]1C(=O)N[C@@H](CC(C)C)C(=O)N[C@@H](CC(C)C)C(=O)N[C@@H](CCCNC(=N)N)C(=O)N[C@@H](CC(=O)O)C(=O)N[C@@H](CO)C(N)=O` [SP2] (6FAM-FKESA[S5]RKQ[S5]LYLKFDPLLRDS-NH2; staple 6-10), the dissociation constant (Kd) is 145 ± 3 µM in data set [1] and 23 ± 5 µM on K507A-CHC^ankle. Consider `CC(C)C[C@H](NC(=O)[C@H](C)NC(=O)[C@H](CO)NC(=O)[C@H](CCC(=O)O)NC(=O)[C@H](CCCCN)NC(=O)c1ccc2c(c1)C(=O)OC21c2ccc(O)cc2Oc2cc(O)ccc21)C(=O)N[C@@H](CCCNC(=N)N)C(=O)N[C@@H](CCCCN)C(=O)N[C@@H](CCC(N)=O)C(=O)N[C@@H](CCC(=O)O)C(=O)N[C@@H](CC(C)C)C(=O)N[C@@H](CC(C)C)C(=O)N[C@@H](CC(C)C)C(=O)N[C@@H](CCC(=O)O)C(=O)N[C@@H](Cc1ccccc1)C(=O)N[C@@H](CC(=O)O)C(=O)N1CCC[C@H]1C(=O)N[C@@H](CC(C)C)C(=O)N[C@@H](Cc1ccccc1)C(=O)N[C@@H](CCCNC(=N)N)C(N)=O` [Opt P6 TACC3 S558E] (5FAM-KESALRKQELLLEFDPLFR-NH2; N-terminus and C-terminus assumed), for which, in the data set on HeLa cells (fixed HeLa cells, 5 h after adding 5 μM FAM-peptide to the culture medium), the “cell permeability seen by confocal imaging” value was “not sufficiently cell permeable”. Regarding `CC(C)C[C@@H]1NC(=O)[C@H](C)NC(=O)[C@H](CO)NC(=O)[C@@](C)(NC(=O)[C@H](CCCCN)NC(=O)[C@H](Cc2ccccc2)NC(=O)c2ccc3c(c2)C2(OC3=O)c3ccc(O)cc3Oc3cc(O)ccc32)CCCC=CCCC[C@@](C)(C(=O)N[C@@H](CCCCN)C(=O)N[C@@H](CCC(N)=O)C(=O)N[C@@H](CC(=O)O)C(=O)N[C@@H](CC(C)C)C(=O)N[C@@H](Cc2ccc(O)cc2)C(=O)N[C@@H](CC(C)C)C(=O)N[C@@H](CCCCN)C(=O)N[C@@H](Cc2ccccc2)C(=O)N[C@@H](CC(=O)O)C(=O)N2CCC[C@H]2C(=O)N[C@@H](CC(C)C)C(=O)N[C@@H](CC(C)C)C(=O)N[C@@H](CCCNC(=N)N)C(=O)N[C@@H](CC(=O)O)C(=O)N[C@@H](CO)C(N)=O)NC1=O` [SP3D] (6FAM-FK[S5]SAL[S5]KQDLYLKFDPLLRDS-NH2; staple 3-7), the Kd worked out at 92 ± 3 µM in data set [1] and 23 ± 6 µM at K507A-CHC^ankle.

As for `CC(C)C[C@H](NC(=O)[C@H](C)NC(=O)[C@H](CO)NC(=O)[C@H](CCC(=O)O)NC(=O)[C@H](CCCCN)NC(=O)COCCOCCOCCNC(=O)c1ccc2c(c1)C1(OC2=O)c2ccc(O)cc2Oc2cc(O)ccc21)C(=O)N[C@@H](CCCNC(=N)N)C(=O)N[C@@H](CCCCN)C(=O)N[C@@]1(C)CCCC=CCCC[C@@](C)(C(=O)N[C@@H](CCC(=O)O)C(=O)N[C@@H](Cc2ccccc2)C(=O)N[C@@H](CC(=O)O)C(=O)N2CCC[C@H]2C(=O)N[C@@H](CC(C)C)C(=O)N[C@@H](Cc2ccccc2)C(=O)N[C@@H](CCCNC(=N)N)C(=O)N[C@@H](CC(=O)O)C(=O)N[C@@H](CO)C(N)=O)NC(=O)[C@H](CC(C)C)NC(=O)[C@H](CC(C)C)NC(=O)[C@H](CCC(=O)O)NC1=O` [Opt PEG3 SP TACC3] ({6FAM-AEEEA}-KESALRK[S5]ELL[S5]EFDPLFRDS-NH2; staple 8-12), the “colocalisation with endogenous TACC3 on the mitotic spindle” value in the data set with HeLa cells (fixed mitotic HeLa cells, FAM-labelled peptides, confocal microscopy) was “colocalised with endogenous TACC3 on the mitotic spindle”. The “reduction of endogenous TACC3 levels in the mitotic spindle” value in the data set with HeLa cells (metaphase HeLa cells, peptide 2.5, 5 and 10 μM, 5 h, compared to the negative control SP TACC3 peptide) is “up to 40%”.

The values above are taken from article PMC12204359, “Mechanistic Design of Cell-Penetrating Disruptors for a Phospho-Dependent Interaction” (Research Square, 2025).
